The values below come from patent publication US9089526B2, “Pharmaceutical product and analysis model for hormone replacement therapy for women and prevention of some cancers and uterine myomas” (Universidad de Chile, priority 2009, dated 2015).

Assay [1] deals with human MDAMB-231 mammary cancer cells. Briefly: In vitro growth (sulforhodamine B) assay, MDAMB-231 cells. It counts as cell-based. The conditions noted are these: 72 h. As for the experimental part:
(§1) Cell lines. The experimental cell cultures were obtained from American Type Culture Collection (Rockville, Md., USA). MCF-7 and MDA-MB231 cells (estrogen receptor positive and negative respectively breast cancer cells) were grown in Dulbecco's modified Eagle's medium (DMEM) containing 10% FCS, 100 U/ml penicillin, 100 μg/ml streptomycin and 1 mM glutamine. Cells were seeded into 96 well microtiter plates in 100 μl at plating density of 3×10^3 cells/well. After 24 h incubation at 37° C. under a humidified 5% carbon dioxide to allow cell attachment, the cells were washed with phenol red-free and the medium was changed to phenol red-free DMEM supplemented with 4% dextran-charcoal-stripped foetal calf serum (DCFCS). Then the cells were treated with different concentrations of drugs and incubated for 72 h under the same conditions. Stock solution of compounds was prepared in ethanol and the final concentration of this solvent was kept constant at 1%. Control cultures received 1% ethanol alone.
(§2) In vitro growth inhibition assay. The sulforhodamine B assay was used according to the method of Skehan et al. 1990 (48) with some modifications (49). […] Protein-bound stain was solubilized with 100 μl of 10 mM unbuffered Tris base, and the cell density was determined using a […] (wavelength 540 nm). […]

Assay [2] relates to human MCF-7 mammary cancer cells. In words: In vitro growth (sulforhodamine B) assay, MCF-7 cells. It counts as cell-based. The conditions noted are these: 72 h. As for the experimental part: as §1, §2
Assay [3] has as its system rat uterus. In words: Estrogenic (agonist) responses in the uterus of prepubertal female rats, substance alone. It counts as in vivo. Particulars: s.c. As for the experimental part:
(§3) Prepubertal female rats were treated s.c. with the vehicle (C) (0.3 mL 1:9 ethanol saline), or a phytoestrogenic preparation, followed after one hour by estradiol-17β (E) Merck (0.33 mg/kg b.wt.), or its vehicle. Among the phytoestrogenic compounds used, genistein (G) Sigma (0.5 mg/kg b.wt.), two different concentrations of soybean ethanol extracts (S): 0.06 (Sd) and 0.364 (Sc) mg genistin/kg b.wt., and extracts, decoctions or extract sub-fractions of various plant species. Genistein quantification was based in the indirect valoration of genistein following 2M HCl hydrolysis and genistein quantification by HPLC (45, 46). […] Uteri were excised under ether anesthesia and histologically processed for eosinophil quantification and morphometric analysis of different parameters of estrogen action (22, 34). The following parameters were quantified in the uterus: total uterine eosinophilia (6), percentage of eosinophils according to the distribution in different uterine histological layers and to their degree of degranulation (10, 14); deep endometrial and superficial endometrial edema (47); luminal epithelial, glandular epithelial (34) and myometrial (47) cell hypertrophy, luminal epithelial RNA content (34), and number of mitotic figures for each uterine cell-type.
(§4) Statistics: According to previous studies (14) using the Tukey test of additivity (50), data on some parameters of estrogen stimulation needs to be submitted to logarithmic transformation or to square or cubic root transformation to normalize distribution. Accordingly, the transformations were performed on some of the parameters of estrogen stimulation investigated (14). Transformed and non-transformed data were subjected to further statistical analysis.
(§5) Since multiple comparisons were performed between the different experimental conditions, transformed and non-transformed data (all parameters except eosinophil degranulation and eosinophil distribution between uterine tissue layers) were subjected to the least significant difference a posteriori (LSD) test. The common variance needed for this test was estimated from a one-way unbalanced analysis of variance (ANOVA).
(§6) In uterine eosinophil degranulation and distribution studies, the χ^2 statistic was used to evaluate differences between the proportions.

The subject of assay [4] is rat uterus. Briefly: Modification of estradiol-induced uterine responses in prepubertal female rats, substance given 1 h before estradiol-17β. The conditions noted are these: for Estrogen-induced endometrial edema: pretreatment 1 h before estradiol 0.33 mg/kg s.c. It counts as in vivo. Here is the method:
as §3, §4, §5, §6

Setting [5] is: substance alone, absence of estradiol.
The mark [6] stands for this setting: pretreatment 1 h before estradiol, compared to estradiol alone.
The mark [7] stands for this setting: pretreatment 1 h before estradiol, mitoses.

In the case of `O=c1c(-c2ccc(O)cc2)coc2cc(O)cc(O)c12` [G, genistein], the “Cell proliferation of cultured MDAMB-231 cells” value is reported as “slightly inhibited” in assay [1] (setting [5]) and “in association with estradiol the inhibitory effect is stronger than that of genistein alone” in assay [1] (substance plus estradiol). In addition, the figures for the “Cell proliferation of cultured MCF-7 cells” value in assay [2] (setting [5]) and in assay [2] (substance plus estradiol) were “increased” and “cell proliferation induced by genistein plus estradiol is higher than that of estradiol alone”, respectively. Moreover, in assay [3] (6 h (FIG. 4)), the “Edema in deep endometrial stroma” value is on record as “not by G or S”. The “Proportion of uterine eosinophils located in the mesometrium and in the endometrium with myometrium” value in assay [3] (6 h (FIG. 6)) was “all the eosinophils were in the mesometrium”. In addition, the “Endometrial luminal epithelial cell hypertrophy” value in assay [3] (24 h (FIG. 2)) is “response similar to E”. Moreover, the “Endometrial luminal epithelial cell RNA content” value in assay [3] (24 h (FIG. 3)) is reported as “response similar to E”. For the same compound, in assay [3] (24 h (FIG. 11)), the “Cell proliferation (number of mitotic figures) in myometrium” value is on record as “not by G, Sd or Sc”. The Myometrial hypertrophy entry in assay [3] (uteri excised 24 h after treatment (FIG. 1)) is “response similar to E”. Also, the values for the Estrogen-induced endometrial edema entry in assay [4] (6 h of treatment) and in assay [4] (24 h of treatment) were “antagonizes” and “not at 24 h”, respectively. For the same compound, the Estrogen-induced uterine eosinophilia entry in assay [4] (pretreatment 1 h before estradiol, 6 and 24 h considered together) is “mainly at 6 h of treatment”. The “Estrogen-induced eosinophilia in the endometrial layer only” value in assay [4] (pretreatment 1 h before estradiol, 6 or 24 h) is “decrease in eosinophils under estrogen treatment is stronger”. The “Degranulation of uterine eosinophils in estrogen-treated rats” value in assay [4] (setting [6]) is given as “decreases the degranulation”. Moreover, the “Proportion of uterine eosinophils by location (endometrium/myometrium vs mesometrium) in estrogen-treated rats” value in assay [4] (setting [6]) was “decrease in the proportion of eosinophils located in endometrium with myometrium”. Further, the “Estrogen-induced cell proliferation in endometrial stroma” value in assay [4] (setting [7]) is given as “almost completely block”. The “Estrogen-induced cell proliferation in myometrium” value in assay [4] (setting [7]) was “almost completely block”. Moreover, the “Estrogen-induced cell proliferation in uterine luminal epithelium” value in assay [4] (setting [7]) is recorded as “almost completely block”.
